Experimental data published in patent publication US6274715A, “Tricyclic erythromycin derivatives” (priority 1997, dated 2001).
Converted amounts (≈) assume the structure as drawn.

Legend:
Format in all cases: cell-based
[1] = test system: STAPHYLOCOCCUS AUREUS A-5278; assay: In vitro antibacterial activity, MIC, BHI agar dilution; conditions: S. aureus A-5278, unit assumed
[2] = test system: STREPTOCOCCUS BOVIS A-5169; assay: as above; conditions: S. bovis A-5169, unit assumed
[3] = test system: ENTEROBACTER AEROGENES ATCC 13048; assay: as above; conditions: E. aerogenes ATCC 13048, unit assumed
[4] = test system: STAPHYLOCOCCUS AUREUS A5177; assay: as above; conditions: S. aureus A5177, unit assumed
[5] = test system: PROVIDENCIA STUARTII CMX 640; conditions: P. stuartii CMX 640; BHI agar; unit assumed
[6] = test system: MYCOBACTERIUM SMEGMATIS ATCC 114; assay: In vitro antibacterial activity, MIC, BHI agar dilution; conditions: M. smegmatis ATCC 114, unit assumed
ESCHERICHIA COLI DC-2 = assay: as above; conditions: E. coli DC-2, unit assumed
[7] = test system: PSEUDOMONAS AERUGINOSA K799/61; assay: as above; conditions: P. aeruginosa K799/61, unit assumed
[8] = test system: PSEUDOMONAS AERUGINOSA DPHD-5263; assay: as above; conditions: P. aeruginosa DPHD-5263, unit assumed
[9] = test system: STAPHYLOCOCCUS AUREUS ATCC 6538P; assay: as above; conditions: S. aureus ATCC 6538P, 35-37° C., 20 to 24 hours, unit assumed
[10] = test system: STREPTOCOCCUS PYOGENES 930; assay: as above; conditions: S. pyogenes 930, unit assumed
[11] = test system: STREPTOCOCCUS PYOGENES EES61; assay: as above; conditions: S. pyogenes EES61, unit assumed
[12] = test system: PSEUDOMONAS AERUGINOSA 5007; assay: as above; conditions: P. aeruginosa 5007, unit assumed
M[…] ATCC 4698 = assay: as above; conditions: M. luteus ATCC 4698, unit assumed
Method: (§1) Representative compounds of the present invention were assayed in vitro for antibacterial activity as follows: Twelve petri dishes containing successive aqueous dilutions of the test compound mixed with 10 mL of sterilized Brain Heart Infusion (BHI) agar (Difco 0418-01-5) were prepared. Each plate was inoculated with 1:100 (or 1:10 for slow-growing strains, such as Micrococcus and Streptococcus) dilutions of up to 32 different microorganisms, using a Steers replicator block. The inoculated plates were incubated at 35-37° C. for 20 to 24 hours. In addition, a control plate, using BHI agar containing no test compound, was prepared and incubated at the beginning and end of each test.
(§2) An additional plate containing a compound having known susceptibility patterns for the organisms being tested and belonging to the same antibiotic class as the test compound was also prepared and incubated as a further control, as well as to provide test-to-test comparability. Erythromycin A was used for this purpose.
(§3) After incubation, each plate was visually inspected. The minimum inhibitory concentration (MIC) was defmed as the lowest concentration of drug yielding no growth, a slight haze, or sparsely isolated colonies on the inoculum spot as compared to the growth control.

EN[…] ATCC 8043 = assay: as above; conditions: E. faecium ATCC 8043, unit assumed
Method: as §1, §2, §3

M[…] ATCC 9341 = assay: as above; conditions: M. luteus ATCC 9341, unit assumed
Method: as §1, §2, §3

STR[…] 508 = assay: as above; conditions: S. agalactiae CMX 508, unit assumed
Method: as §1, §2, §3

ESCHERICHIA COLI SS = assay: as above; conditions: E. coli SS, unit assumed
ESCHERICHIA COLI H560 = assay: as above; conditions: E. coli H560, unit assumed
ESCHERICHIA COLI JUHL = conditions: E. coli JUHL; BHI agar; unit assumed
[13] = test system: STAPHYLOCOCCUS EPIDERMIDIS 3519; conditions: S. epidermidis 3519; BHI agar; unit assumed
[14] = test system: PSEUDOMONAS AERUGINOSA K799/WT; assay: In vitro antibacterial activity, MIC, BHI agar dilution; conditions: P. aeruginosa K799/WT, unit assumed
[15] = test system: STAPHYLOCOCCUS AUREUS CMX 642A; assay: as above; conditions: S. aureus CMX 642A, unit assumed
[16] = test system: STAPHYLOCOCCUS AUREUS CMX 553; assay: as above; conditions: S. aureus CMX 553, unit assumed
[17] = test system: PSEUDOMONAS AERUGINOSA DPHD-2862; assay: as above; conditions: P. aeruginosa DPHD-2862, unit assumed
[18] = test system: KLEBSIELLA PNEUMONIAE ATCC 8045; assay: as above; conditions: K. pneumoniae ATCC 8045, unit assumed
[19] = test system: STAPHYLOCOCCUS AUREUS 1775; assay: as above; conditions: S. aureus 1775, unit assumed
[20] = test system: STAPHYLOCOCCUS AUREUS NCTC10649M; assay: as above; conditions: S. aureus NCTC10649M, unit assumed
CANDIDA ALBICANS CCH 442 = assay: as above; conditions: C. albicans CCH 442, unit assumed
[21] = test system: PSEUDOMONAS AERUGINOSA BMH10; assay: as above; conditions: P. aeruginosa BMH10, unit assumed
PSEUDOMONAS CEPACIA 296I = assay: as above; conditions: P. cepacia 296I, unit assumed
ESCHERICHIA COLI KNK 437 = conditions: E. coli KNK 437; BHI agar; unit assumed

Structure (SMILES) | MIC [1] | MIC [2] | MIC [3] | MIC [4] | MIC [5] | MIC [6] | MIC (ESCHERICHIA COLI DC-2) | MIC [7] | MIC [8] | MIC [9] | MIC [10] | MIC [11] | MIC [12] | MIC (M[…] ATCC 4698) | MIC (EN[…] ATCC 8043) | MIC (M[…] ATCC 9341) | MIC (STR[…] 508) | MIC (ESCHERICHIA COLI SS) | MIC (ESCHERICHIA COLI H560) | MIC (ESCHERICHIA COLI JUHL) | further results
CC[C@H]1OC(=O)[C@H](C)C(=O)[C@H](C)[C@@H](O[C@@H]2O[C@H](C)C[C@H](N(C)C)[C@H]2O)[C@](C)(OC)C[C@@H](C)C2=N[C@H](COCc3ccncc3)CN3C(=O)O[C@@]1(C)[C@H]3[C@H]2C [Example 77] | > 100 µg/mL | ≤ 0.005 µg/mL | > 100 µg/mL | 0.2 µg/mL (≈ 0.264 µM) | > 100 µg/mL | 0.78 µg/mL (≈ 1.03 µM) | 100 µg/mL (≈ 132 µM) | 1.56 µg/mL (≈ 2.06 µM) | > 100 µg/mL | 0.39 µg/mL (≈ 0.514 µM) | > 100 µg/mL | < 0.005 µg/mL | > 100 µg/mL | 0.39 µg/mL (≈ 0.514 µM) | 0.05 µg/mL (≈ 0.0659 µM) | 0.05 µg/mL (≈ 0.0659 µM) | 0.01 µg/mL (≈ 0.0132 µM) | 0.39 µg/mL (≈ 0.514 µM) | 50 µg/mL (≈ 65.9 µM) | > 100 µg/mL | MIC [13]: 0.39 µg/mL (≈ 0.514 µM); MIC [14]: 100 µg/mL (≈ 132 µM); MIC [15]: 0.39 µg/mL (≈ 0.514 µM); MIC [16]: 0.39 µg/mL (≈ 0.514 µM); MIC [17]: > 100 µg/mL; MIC [18]: > 100 µg/mL; MIC [19]: > 100 µg/mL; MIC [20]: 0.39 µg/mL (≈ 0.514 µM); MIC (CANDIDA ALBICANS CCH 442): > 100 µg/mL; MIC [21]: > 100 µg/mL; MIC (PSEUDOMONAS CEPACIA 296I): > 100 µg/mL; MIC (ESCHERICHIA COLI KNK 437): > 100 µg/mL
CC[C@H]1OC(=O)[C@H](C)C(=O)[C@H](C)[C@@H](O[C@@H]2O[C@H](C)C[C@H](N(C)C)[C@H]2O)[C@](C)(OC)C[C@@H](C)C2=N[C@@H](COCc3ccncc3)CN3C(=O)O[C@@]1(C)[C@H]3[C@H]2C [Example 86] | > 100 µg/mL | ≤ 0.005 µg/mL | > 100 µg/mL | 0.2 µg/mL (≈ 0.264 µM) | > 100 µg/mL | 0.78 µg/mL (≈ 1.03 µM) | 100 µg/mL (≈ 132 µM) | 1.56 µg/mL (≈ 2.06 µM) | > 100 µg/mL | 0.39 µg/mL (≈ 0.514 µM) | > 100 µg/mL | < 0.005 µg/mL | > 100 µg/mL | 0.39 µg/mL (≈ 0.514 µM) | 0.05 µg/mL (≈ 0.0659 µM) | 0.05 µg/mL (≈ 0.0659 µM) | 0.01 µg/mL (≈ 0.0132 µM) | 0.39 µg/mL (≈ 0.514 µM) | 50 µg/mL (≈ 65.9 µM) | > 100 µg/mL | MIC [13]: 0.39 µg/mL (≈ 0.514 µM); MIC [14]: 100 µg/mL (≈ 132 µM); MIC [15]: 0.39 µg/mL (≈ 0.514 µM); MIC [16]: 0.39 µg/mL (≈ 0.514 µM); MIC [17]: > 100 µg/mL; MIC [18]: > 100 µg/mL; MIC [19]: > 100 µg/mL; MIC [20]: 0.39 µg/mL (≈ 0.514 µM); MIC (CANDIDA ALBICANS CCH 442): > 100 µg/mL; MIC [21]: > 100 µg/mL; MIC (PSEUDOMONAS CEPACIA 296I): > 100 µg/mL; MIC (ESCHERICHIA COLI KNK 437): > 100 µg/mL
CC[C@H]1OC(=O)[C@H](C)C(=O)[C@H](C)[C@@H](O[C@@H]2O[C@H](C)C[C@H](N(C)C)[C@H]2O)[C@](C)(OC)C[C@@H](C)C2=NC3CCCCC3N3C(=O)O[C@@]1(C)[C@H]3[C@H]2C (stereo partly drawn) [Example 106] | > 100 µg/mL | ≤ 0.005 µg/mL | 50 µg/mL (≈ 72.3 µM) | 0.2 µg/mL (≈ 0.289 µM) | > 100 µg/mL | 3.1 µg/mL (≈ 4.48 µM) | 25 µg/mL (≈ 36.1 µM) | 0.78 µg/mL (≈ 1.13 µM) | 100 µg/mL (≈ 145 µM) | 0.2 µg/mL (≈ 0.289 µM) | > 100 µg/mL | ≤ 0.005 µg/mL | > 100 µg/mL | 0.39 µg/mL (≈ 0.564 µM) | 0.05 µg/mL (≈ 0.0723 µM) | 0.05 µg/mL (≈ 0.0723 µM) | 0.02 µg/mL (≈ 0.0289 µM) | 0.39 µg/mL (≈ 0.564 µM) | 12.5 µg/mL (≈ 18.1 µM) | 25 µg/mL (≈ 36.1 µM) | MIC [13]: 0.2 µg/mL (≈ 0.289 µM); MIC [14]: 100 µg/mL (≈ 145 µM); MIC [15]: 0.39 µg/mL (≈ 0.564 µM); MIC [16]: 0.2 µg/mL (≈ 0.289 µM); MIC [17]: > 100 µg/mL; MIC [18]: 100 µg/mL (≈ 145 µM); MIC [19]: > 100 µg/mL; MIC [20]: 0.2 µg/mL (≈ 0.289 µM); MIC (CANDIDA ALBICANS CCH 442): > 100 µg/mL; MIC [21]: 100 µg/mL (≈ 145 µM); MIC (PSEUDOMONAS CEPACIA 296I): 100 µg/mL (≈ 145 µM); MIC (ESCHERICHIA COLI KNK 437): 25 µg/mL (≈ 36.1 µM)
